Assay results as given in US20220047594A1, “METHOD FOR TREATING INTERSTITIAL LUNG DISEASE” (ALTAVANT SCIENCES GmbH, priority 2018, published 2022).

What was measured:
[1] = stability and shelf life of the crystalline polymorphs of Compound A; assay type: physicochemical; settings: compared to the crystalline Form 1 polymorph; particularly at temperatures of less than 95° C.
Text: The compound may be used to prevent or treat IPF in either an amorphous or crystalline form. Two different polymorph crystalline forms are identified by x-ray powder diffraction patterns set forth in FIG. 1 (Form 3) and FIG. 2 (Form 1) as well as Tables 1 and 2 (Form 3) and Tables 3 and 4 (Form 1).

TPH1 = target: T1, TPH1 (Mus musculus, UniProt P17532); settings: amorphous form, U.S. Pat. No. 9,199,994 Example 63i and Table 27; cited from earlier work
T1 construct: host or cells: mice (in vivo)
T1 sequence (P17532 1-447): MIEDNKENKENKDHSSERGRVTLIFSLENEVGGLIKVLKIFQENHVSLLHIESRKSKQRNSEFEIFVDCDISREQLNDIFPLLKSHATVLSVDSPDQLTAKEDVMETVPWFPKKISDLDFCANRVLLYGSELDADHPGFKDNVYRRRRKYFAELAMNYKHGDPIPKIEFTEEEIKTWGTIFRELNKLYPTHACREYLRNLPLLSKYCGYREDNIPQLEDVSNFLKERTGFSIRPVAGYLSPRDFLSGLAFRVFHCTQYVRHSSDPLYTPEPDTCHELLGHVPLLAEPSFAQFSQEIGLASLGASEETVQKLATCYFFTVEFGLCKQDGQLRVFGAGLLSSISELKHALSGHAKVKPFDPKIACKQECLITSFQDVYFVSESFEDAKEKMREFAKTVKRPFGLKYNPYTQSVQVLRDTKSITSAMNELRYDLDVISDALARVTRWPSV

[2] = test system: bleomycin-induced mouse model; settings: inflammatory phase and fibrogenic phase; cited from earlier work
[3] = test system: bleomycin-induced mouse model; settings: cited from earlier work

CCOC(=O)[C@@H]1CC2(CCN(c3cc(O[C@H](c4ccc(Cl)cc4-c4ccccc4)C(F)(F)F)nc(N)n3)CC2)CN1 [crystalline Form 3, (S)-ethyl 8-(2-amino-6-((R)-1-(5-chloro-[1,1′-biphenyl]-2-yl)-2,2,2-trifluoroethoxy)pyrimidin-4-yl)-2,8-diazaspiro[4.5]decane-3-carboxylate]
stability and shelf life [1]: substantially greater stability and shelf life

CCOC(=O)[C@@H]1CC2(CCN(c3cc(O[C@H](c4ccc(Cl)cc4-c4ccccc4)C(F)(F)F)nc(N)n3)CC2)CN1 [Compound A, (S)-ethyl 8-(2-amino-6-((R)-1-(5-chloro-[1,1′-biphenyl]-2-yl)-2,2,2-trifluoroethoxy)pyrimidin-4-yl)-2,8-diazaspiro[4.5]decane-3-carboxylate]
efficacy in inhibiting TPH1 in mice (TPH1): demonstrated

CCN(CC)C(=O)N[C@H]1C[C@@H]2c3cccc4[nH]cc(c34)C[C@H]2N(C)C1 [terguride]
efficacy in attenuating pulmonary fibrosis [2]: attenuating in both the inflammatory phase and the fibrogenic phase
lung function, histology and collagen content ([3]; bleomycin-induced mouse model, treated mice): improved lung function and histology and collagen content
tolerability ([3]; mouse, in vivo): well-tolerated

CC1CCN(CC[C@H]2CCCN2S(=O)(=O)c2cccc(O)c2)CC1 [SB-269970]
efficacy in attenuating pulmonary fibrosis [2]: attenuating in both the inflammatory phase and the fibrogenic phase
